Measured values taken from publication PMC7190724, “Improved GPCR ligands from nanobody tethering” (Nature Communications, 2020).
Values joined by “and” are separate entries in the source; they are usually repeats but may differ in a detail not shown here. Identical values can stand only once. Where a SMILES comes first, the peptide text is derived from it. [ ]: non-standard residue; d: D form. Aib = CC(C)(N)C(=O)O

Tests used:
hPTHR1 = molecular target: T1, hPTHR1 (Homo sapiens, UniProt Q03431); test: cAMP response (GloSensor luminescence), HEK293 stably expressing human PTHR1 (GP2.3); format: cell-based; settings: human PTHR1 cells
T1 construct: expressed in transfected cells; host or cells: HEK293 (clone GP2.3) with GloSensor cAMP reporter
T1 sequence (Q03431 27-593): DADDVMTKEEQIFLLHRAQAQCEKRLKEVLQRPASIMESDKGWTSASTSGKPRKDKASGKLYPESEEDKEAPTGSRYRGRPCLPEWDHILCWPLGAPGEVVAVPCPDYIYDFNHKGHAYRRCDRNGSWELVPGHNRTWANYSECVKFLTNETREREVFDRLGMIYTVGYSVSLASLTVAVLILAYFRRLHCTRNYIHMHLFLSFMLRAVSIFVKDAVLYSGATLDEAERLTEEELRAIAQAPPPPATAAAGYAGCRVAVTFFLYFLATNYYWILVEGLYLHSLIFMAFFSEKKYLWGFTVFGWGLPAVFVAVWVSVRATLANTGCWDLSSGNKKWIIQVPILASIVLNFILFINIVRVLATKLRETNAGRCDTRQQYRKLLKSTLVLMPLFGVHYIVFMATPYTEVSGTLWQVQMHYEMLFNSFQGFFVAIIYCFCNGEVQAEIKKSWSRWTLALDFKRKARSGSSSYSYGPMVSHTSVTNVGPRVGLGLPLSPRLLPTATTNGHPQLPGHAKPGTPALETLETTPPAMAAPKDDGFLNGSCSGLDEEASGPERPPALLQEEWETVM
Experimental: (§1) A HEK293 cell line stably expressing β-Arrestin2-YFP (GBR24) was constructed similarly. PTHR1_6E was produced using the Q5 Site-directed mutagenesis kit (NEB) and used to prepare a stably transfected HEK293-derived cell line. Annotated sequence data for all PTHR1 constructs are found in Supplementary Fig. 19. Aligned sequences of VHHs used in this study are shown in Supplementary Fig. 20.
(§2) These assays were performed as previously described. […] Confluent monolayers of cells were pre-incubated with CO2 independent medium containing D-luciferin (0.5 mM) at 37 °C until a stable baseline level of luminescence was established (20 min). Varying concentrations of ligands were then added, and the time course of luminescence response was recorded using BioTek plate reader.
(§3) Data were processed using Microsoft Excel and GraphPad Prism 6. Data from cAMP dose–response assays were analyzed using a sigmoidal dose–response model with variable slope. Data sets were statistically compared by using Student’s t test (two-tailed) assuming unequal variances for the two sets.

PTHR1YFPΔECD = molecular target: T2, PTHR1YFPΔECD (Homo sapiens, UniProt Q03431); test: cAMP response (GloSensor luminescence), HEK293 stably expressing PTHR1YFPΔECD (GD5Y); format: cell-based; settings: peak GloSensor luminescence; mean ± SD, ≥3 independent experiments; read-out: EC50, cAMP induction
T2 construct: expressed in transfected cells; host or cells: HEK293 (clone GD5Y) with GloSensor cAMP reporter
T2 sequence (Q03431 with tags, fused parts or gaps limits assumed): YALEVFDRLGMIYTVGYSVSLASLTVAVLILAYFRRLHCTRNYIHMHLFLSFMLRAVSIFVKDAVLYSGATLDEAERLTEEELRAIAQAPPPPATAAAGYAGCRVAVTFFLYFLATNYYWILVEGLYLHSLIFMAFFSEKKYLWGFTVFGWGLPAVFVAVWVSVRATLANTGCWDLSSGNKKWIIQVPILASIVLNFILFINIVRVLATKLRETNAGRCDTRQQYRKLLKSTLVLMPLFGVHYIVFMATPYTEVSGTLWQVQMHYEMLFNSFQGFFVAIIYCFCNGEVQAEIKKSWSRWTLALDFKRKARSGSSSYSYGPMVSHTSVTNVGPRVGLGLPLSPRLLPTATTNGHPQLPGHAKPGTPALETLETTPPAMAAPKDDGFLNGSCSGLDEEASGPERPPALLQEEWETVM
Experimental: as §1, §2, §3

PTHR1GFP = molecular target: T3, PTHR1GFP (Homo sapiens, UniProt Q03431); test: cAMP response (GloSensor luminescence), HEK293 stably expressing PTHR1GFP (GPG10); format: cell-based
T3 sequence (Q03431 27-593): T1 sequence (Q03431 27-593)
Experimental: (§4) These assays were performed as previously described. Briefly, HEK-293-derived cell lines that stably express the Glosensor cAMP reporter (Promega Corp.)[30] and PTHR1, a PTHR1 variant, or PTHR2 were seeded into white sided 96-well plates (50,000 cells/well) and grown to confluency. Confluent monolayers of cells were pre-incubated with CO2 independent medium containing D-luciferin (0.5 mM) at 37 °C until a stable baseline level of luminescence was established (20 min). Varying concentrations of ligands were then added, and the time course of luminescence response was recorded using BioTek plate reader. The maximal luminescence response (observed 12–16 min after ligand addition) was used to construct dose-response data sets (Table 1, Supplementary Fig. 6).
as §3
Supplementary Figure 1. […]
GFP variant known as pHluorin2 engrafted into the receptor(ref. 19, main text). c) HEK293 cells stably expressing PTHR1-GFP were treated with varied doses of the indicated peptides or conjugates and activation was assessed by measuring luminescence from a cAMP-activated luciferase variant. Values listed represent EC50 values (mean ± SD). Each value comes from ≥ 3 independent experiments. Further details, including the number of replicates for each measurement and the normalized maximal responses induced, are reported in Supplementary Table 1. […]
than 5% of the maximal response induced for that cell line.
Peptide or conjugate PTHR1GFP

hPTHR2 = molecular target: T4, hPTHR2 (Homo sapiens, UniProt P49190); test: cAMP response (GloSensor luminescence), HEK293 stably expressing hPTHR2; format: cell-based; settings: for EC50: peak GloSensor luminescence, mean ± SD, n = 3-4, read-out: EC50, cAMP induction
T4 construct: expressed in transfected cells
Experimental: as §4, §3

blood ionized calcium = test: Calcemic response in mice (blood ionized calcium); format: in vivo, mouse; settings: for iCa measurement, blood ionized calcium: individual mouse
Experimental: Fig. 5 VHH conjugation potentiates an in vivo response. a Schematic of the experiment performed in mice. b Measurement of blood ionized calcium levels in mice injected with PTH and conjugates. Data presented is from a single experiment. The double line break represents a discontinuity in the Y-axis. Mice (CD1 females, 11 weeks) were injected subcutaneously with the indicated ligand (dose = 35 nmol/kg). Blood was drawn at the indicated time points and analyzed for ionized calcium levels. Data points indicate mean ± standard error of the mean (SEM), n = 4. A two-sided t-test without corrections for multiple comparisons was used for comparisons. *p = 0.005 vs. vehicle. ^#p = 0.015 vs. vehicle. ^●p = 0.038 vs. M-PTH(1-14). °p = 0.008 vs. M-PTH(1-14). The sequence of M-PTH(1-14) used here differs from PTH(1-14) in Fig. 2 and is UVUEIQLMHQXAKW where U is Aib and X is homoarginine. Source data are provided in the Source Data File. […] Traces for the calcemic responses of individual mice is found in Supplementary Fig. 18. Source data can be found in the Source Data file.
Mice (CD1 female, age 11 weeks) were treated in accordance with the ethical guidelines adopted by Massachusetts General Hospital. […] Peptides and conjugates were administered at doses that allowed for differentiation between compounds with differing levels of in vivo activity. Statistical analyses were performed assuming Gaussian distribution of data. Mice (n = 4 per compound) were injected subcutaneously with vehicle (10 mM citric acid/150 mM NaCl/0.05% Tween-80, pH 5.0) or vehicle containing PTH or conjugate at a dose of 35 nmol/kg body weight. […] Blood was withdrawn just before injection (t = 0) or at times thereafter. Tail vein blood was collected and immediately analyzed. Blood Ca^2+ concentration was measured with a Siemens RapidLab 348 Ca2+/pH analyzer.

T4 sequence (P49190 25-550): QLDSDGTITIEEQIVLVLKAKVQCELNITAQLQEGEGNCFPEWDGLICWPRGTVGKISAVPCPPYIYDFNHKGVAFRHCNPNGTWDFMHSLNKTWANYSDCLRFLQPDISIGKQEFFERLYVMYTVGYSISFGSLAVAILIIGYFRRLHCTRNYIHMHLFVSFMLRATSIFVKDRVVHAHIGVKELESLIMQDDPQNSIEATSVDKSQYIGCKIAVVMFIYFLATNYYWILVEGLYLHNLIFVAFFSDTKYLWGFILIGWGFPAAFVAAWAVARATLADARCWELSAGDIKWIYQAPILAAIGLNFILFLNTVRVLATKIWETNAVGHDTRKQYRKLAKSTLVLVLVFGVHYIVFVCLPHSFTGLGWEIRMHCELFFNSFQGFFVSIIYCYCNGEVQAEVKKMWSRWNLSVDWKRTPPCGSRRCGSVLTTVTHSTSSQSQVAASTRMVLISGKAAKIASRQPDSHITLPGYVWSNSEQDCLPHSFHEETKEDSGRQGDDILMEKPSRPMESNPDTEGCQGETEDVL

## G3-PTH(1-14): PTH(1-14) analog with an N-terminal triglycine extension (SVSEIQLMHNLGKH; N-terminal triglycine extension; UniProt P01270 32-45, looked up, fragment)
hPTHR1
  cAMP activity: reduction in potency

## CC[C@H](C)[C@H](NC(=O)[C@H](CCC(=O)O)NC(=O)[C@H](CO)NC(=O)[C@@H](NC(=O)[C@@H](N)CO)C(C)C)C(=O)N[C@@H](CCC(N)=O)C(=O)N[C@@H](CC(C)C)C(=O)N[C@@H](CCSC)C(=O)N[C@@H](Cc1c[nH]cn1)C(=O)N[C@@H](CC(N)=O)C(=O)N[C@@H](CC(C)C)C(=O)NCC(=O)N[C@@H](CCCCN)C(=O)N[C@@H](Cc1c[nH]cn1)C(=O)N[C@@H](CC(C)C)C(=O)N[C@@H](CC(N)=O)C(=O)N[C@@H](CO)C(=O)N[C@@H](CCSC)C(=O)N[C@@H](CCC(=O)O)C(=O)N[C@@H](CCCNC(=N)N)C(=O)N[C@H](C(=O)N[C@@H](CCC(=O)O)C(=O)N[C@@H](Cc1c[nH]c2ccccc12)C(=O)N[C@@H](CC(C)C)C(=O)N[C@@H](CCCNC(=N)N)C(=O)N[C@@H](CCCCN)C(=O)N[C@@H](CCCCN)C(=O)N[C@@H](CC(C)C)C(=O)N[C@@H](CCC(N)=O)C(=O)N[C@@H](CC(=O)O)C(=O)N[C@H](C(=O)N[C@@H](Cc1c[nH]cn1)C(=O)N[C@@H](CC(N)=O)C(=O)N[C@@H](Cc1ccccc1)C(=O)N[C@@H](CS)C(N)=O)C(C)C)C(C)C [PTH(1-34)]
PTHR1YFPΔECD
  EC50: > 500 nM and 689 nM
PTHR1GFP
  EC50: 0.4 ± 0.8 nM
hPTHR2
  EC50: 1.45 ± 2.42 nM

## UVUEIQLMHQXAKW [M-PTH(1-14), modified PTH(1-14) analog used in mice, UVUEIQLMHQXAKW, U is Aib and X is homoarginine]
Blood ionized calcium; 35 nmol/kg s.c., CD1 female mice, n = 4, single experiment
  blood ionized calcium response: little if any activity
Blood ionized calcium; 1 h after 35 nmol/kg s.c., 1st of 4 in group (mouse # 5, 9, 13)
  iCa measurement, blood ionized calcium: 1.36 mM
Blood ionized calcium; 1 h after 35 nmol/kg s.c., 2nd of 4 in group (mouse # 6, 10, 14)
  iCa measurement, blood ionized calcium: 1.34 mM
Blood ionized calcium; 1 h after 35 nmol/kg s.c., 3rd of 4 in group (mouse # 7, 11, 15)
  iCa measurement, blood ionized calcium: 1.29 mM
Blood ionized calcium; 1 h after 35 nmol/kg s.c., 4th of 4 in group (mouse # 8, 12, 16)
  iCa measurement, blood ionized calcium: 1.33 mM
Blood ionized calcium; 2 h after 35 nmol/kg s.c., 1st of 4 in group (mouse # 5, 9, 13)
  iCa measurement, blood ionized calcium: 1.31 mM
Blood ionized calcium; 2 h after 35 nmol/kg s.c., 2nd of 4 in group (mouse # 6, 10, 14)
  iCa measurement, blood ionized calcium: 1.32 mM
Blood ionized calcium; 2 h after 35 nmol/kg s.c., 3rd of 4 in group (mouse # 7, 11, 15)
  iCa measurement, blood ionized calcium: 1.27 mM
Blood ionized calcium; 2 h after 35 nmol/kg s.c., 4th of 4 in group (mouse # 8, 12, 16)
  iCa measurement, blood ionized calcium: 1.28 mM
Blood ionized calcium; 2h after injection, 35 nmol/kg s.c.
  ionized Ca, group value quoted by reviewer: 1.29 mM
Blood ionized calcium; 4 h after 35 nmol/kg s.c., 1st of 4 in group (mouse # 5, 9, 13)
  iCa measurement, blood ionized calcium: 1.31 mM
Blood ionized calcium; 4 h after 35 nmol/kg s.c., 2nd of 4 in group (mouse # 6, 10, 14)
  iCa measurement, blood ionized calcium: 1.33 mM
Blood ionized calcium; 4 h after 35 nmol/kg s.c., 3rd of 4 in group (mouse # 7, 11, 15)
  iCa measurement, blood ionized calcium: 1.29 mM
Blood ionized calcium; 4 h after 35 nmol/kg s.c., 4th of 4 in group (mouse # 8, 12, 16)
  iCa measurement, blood ionized calcium: 1.29 mM
Blood ionized calcium; 8 h after 35 nmol/kg s.c., 1st of 4 in group (mouse # 5, 9, 13)
  iCa measurement, blood ionized calcium: 1.33 mM
Blood ionized calcium; 8 h after 35 nmol/kg s.c., 2nd of 4 in group (mouse # 6, 10, 14)
  iCa measurement, blood ionized calcium: 1.30 mM
Blood ionized calcium; 8 h after 35 nmol/kg s.c., 3rd of 4 in group (mouse # 7, 11, 15)
  iCa measurement, blood ionized calcium: 1.28 mM
Blood ionized calcium; 8 h after 35 nmol/kg s.c., 4th of 4 in group (mouse # 8, 12, 16)
  iCa measurement, blood ionized calcium: 1.30 mM

## CC[C@H](C)[C@H](NC(=O)[C@H](CCC(=O)O)NC(=O)C(C)(C)NC(=O)[C@@H](NC(=O)[C@H](C)N)C(C)C)C(=O)N[C@@H](CCC(N)=O)C(=O)N[C@@H](CC(C)C)C(=O)N[C@@H](CCSC)C(=O)N[C@@H](Cc1c[nH]cn1)C(=O)N[C@@H](CCC(N)=O)C(=O)N[C@@H](CCCNC(=N)N)C(=O)N[C@@H](CS)C(N)=O [PTH(1-11)] (H-AV[Aib]EIQLMHQRC-NH2)
PTHR1YFPΔECD
  EC50: 246 nM
PTHR1GFP
  EC50: 79 ± 45 nM
hPTHR2; 100 uM
  response at 100 uM: 20%
hPTHR2
  EC50: > 100000 nM
